US20170073337A1, “DIHYDROTHIAZINE AND DIHYDROOXAZINE DERIVATIVES HAVING BACE1 INHIBITORY ACTIVITY” (Shionogi & Co., Ltd., priority 2014, published 2017)
In brackets after ≈: the same amount, converted by molar mass. Like-named read-outs stand apart in the source and are kept apart here.

How the values were obtained:
CYP3A4 = target: T1, CYP3A4 (Homo sapiens, UniProt P08684); assay: CYP inhibition test (CYP3A4); type: in vitro ADME; settings: pooled human liver microsomes; terfenadine hydroxylation
T1 construct: The commercially available pooled human liver microsomes are used as an enzyme resource; from tissue; host or cells: pooled human liver microsomes
How it was run: (§1)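 Pooled human liver microsomes (0.2 mg protein/mL) were incubated at 37 °C with NADPH, compound at 1, 5, 10, 20 μmol/L and marker substrates: tolbutamide 100 μmol/L (2C9), S-mephenytoin 50 μmol/L (2C19), dextromethorphan 5 μmol/L (2D6), terfenadine 1 μmol/L (3A4). Metabolites were measured by LC/MS/MS; IC50 came from logistic fitting against DMSO control.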

Solubility test = type: physicochemical
How it was run: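 Dissolved concentration determined by LC/MS or SPE/MS (absolute calibration) in diluted filtrates, after 2 μL of 10 mmol/L DMSO stock was added to 198 μL JP 1st or JP 2nd fluid and equilibrated either 1 h with shaking at room temperature or 16 h standing at 25 °C.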

CYP2C19 = target: T2, CYP2C19 (Homo sapiens, UniProt P33261); assay: CYP inhibition test (CYP2C19); type: in vitro ADME; settings: pooled human liver microsomes; mephenytoin 4′-hydroxylation
T2 construct: The commercially available pooled human liver microsomes are used as an enzyme resource; from tissue; host or cells: pooled human liver microsomes
How it was run: as §1

[1] = target: T3, human ether-a-go-go related gene (hERG) channel (Homo sapiens, UniProt Q12809); assay: hERG test; type: cell-based; settings: % inhibition of IKr tail peak current at 3 uM; CHO cells expressing hERG
T3 construct: expressed in transfected cells; host or cells: CHO cells
How it was run: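 IKr was recorded from hERG-expressing CHO cells by automated whole-cell patch clamp at a holding potential of −80 mV. A −50 mV leak step was followed by a 2 s depolarization to +20 mV and a 2 s repolarization to −50 mV, when current was measured.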

Metabolic stability test = type: in vitro ADME; settings: human liver microsomes, 37° C., 30 minutes, NADPH
How it was run: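 Parent compound was measured by LC/MS/MS or SPE/MS after a methanol/acetonitrile quench and reported as % remaining, with the 0 min sample set to 100%. Incubations ran 30 min at 37 °C in pH 7.4 Tris buffer containing pooled human liver microsomes at 0.5 mg protein/mL and 1 mmol/L NADPH.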

CYP1A2 = target: T4, CYP1A2 (Homo sapiens, UniProt P05177); assay: CYP inhibition test (CYP1A2); type: in vitro ADME; settings: pooled human liver microsomes; 7-ethoxyresorufin O-deethylation
T4 construct: The commercially available pooled human liver microsomes are used as an enzyme resource; from tissue; host or cells: pooled human liver microsomes
T4 sequence (P05177 1-516): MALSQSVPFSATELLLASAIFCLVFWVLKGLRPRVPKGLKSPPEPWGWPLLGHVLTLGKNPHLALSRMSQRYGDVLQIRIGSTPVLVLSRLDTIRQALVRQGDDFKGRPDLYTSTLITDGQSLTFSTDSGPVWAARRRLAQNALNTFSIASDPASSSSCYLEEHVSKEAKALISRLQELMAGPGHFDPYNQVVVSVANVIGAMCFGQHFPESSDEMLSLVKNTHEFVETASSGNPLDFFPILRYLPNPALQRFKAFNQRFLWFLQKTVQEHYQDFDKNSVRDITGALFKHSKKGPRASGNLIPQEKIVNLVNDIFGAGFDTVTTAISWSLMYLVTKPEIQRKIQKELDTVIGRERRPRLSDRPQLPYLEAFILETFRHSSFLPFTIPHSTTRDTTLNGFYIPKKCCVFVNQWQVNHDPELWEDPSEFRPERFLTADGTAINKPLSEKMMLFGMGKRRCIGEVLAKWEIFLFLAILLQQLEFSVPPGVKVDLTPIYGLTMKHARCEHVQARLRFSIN
How it was run: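 Inhibition of CYP1A2 was measured in commercially available pooled human liver microsomes (0.2 mg protein/mL) using 7-ethoxyresorufin O-deethylation with 0.5 μmol/L ethoxyresorufin. Test compound at 1, 5, 10, 20 μmol/L in […] Hepes buffer was incubated at 37° C. after NADPH addition; methanol/acetonitrile=1/1 (v/v) stopped the reaction, and resorufin was read fluorescently.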

[2] = JP 1st fluid, pH 1.2, simulated gastric fluid, kinetic from dmso stock, read-out: JP1
[3] = solubility in JP 2nd fluid B, 1% DMSO, *2: shaken for 1 hour at room temperature, read-out: JP2_μM
[4] = JP 2nd fluid B, pH 6.8, aqueous buffer, kinetic from dmso stock, read-out: JP2_μM
[5] = JP 2nd fluid A, pH 6.8, aqueous buffer, kinetic from dmso stock, read-out: JP2_μM

T2 sequence (P33261 whole entry): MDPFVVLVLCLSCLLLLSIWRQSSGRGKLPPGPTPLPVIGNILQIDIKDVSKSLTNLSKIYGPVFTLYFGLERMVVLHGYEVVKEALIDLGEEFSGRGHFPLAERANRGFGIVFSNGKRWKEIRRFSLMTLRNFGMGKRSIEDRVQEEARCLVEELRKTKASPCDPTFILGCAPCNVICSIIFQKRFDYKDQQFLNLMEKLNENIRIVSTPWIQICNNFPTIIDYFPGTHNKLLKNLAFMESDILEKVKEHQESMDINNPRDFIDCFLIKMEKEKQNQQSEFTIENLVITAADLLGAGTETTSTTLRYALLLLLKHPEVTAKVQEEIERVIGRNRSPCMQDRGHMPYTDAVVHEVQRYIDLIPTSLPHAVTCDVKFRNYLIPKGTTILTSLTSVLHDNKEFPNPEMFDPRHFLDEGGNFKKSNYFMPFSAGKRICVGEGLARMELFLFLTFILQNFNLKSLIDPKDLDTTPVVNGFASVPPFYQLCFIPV
T3 sequence (Q12809 whole entry): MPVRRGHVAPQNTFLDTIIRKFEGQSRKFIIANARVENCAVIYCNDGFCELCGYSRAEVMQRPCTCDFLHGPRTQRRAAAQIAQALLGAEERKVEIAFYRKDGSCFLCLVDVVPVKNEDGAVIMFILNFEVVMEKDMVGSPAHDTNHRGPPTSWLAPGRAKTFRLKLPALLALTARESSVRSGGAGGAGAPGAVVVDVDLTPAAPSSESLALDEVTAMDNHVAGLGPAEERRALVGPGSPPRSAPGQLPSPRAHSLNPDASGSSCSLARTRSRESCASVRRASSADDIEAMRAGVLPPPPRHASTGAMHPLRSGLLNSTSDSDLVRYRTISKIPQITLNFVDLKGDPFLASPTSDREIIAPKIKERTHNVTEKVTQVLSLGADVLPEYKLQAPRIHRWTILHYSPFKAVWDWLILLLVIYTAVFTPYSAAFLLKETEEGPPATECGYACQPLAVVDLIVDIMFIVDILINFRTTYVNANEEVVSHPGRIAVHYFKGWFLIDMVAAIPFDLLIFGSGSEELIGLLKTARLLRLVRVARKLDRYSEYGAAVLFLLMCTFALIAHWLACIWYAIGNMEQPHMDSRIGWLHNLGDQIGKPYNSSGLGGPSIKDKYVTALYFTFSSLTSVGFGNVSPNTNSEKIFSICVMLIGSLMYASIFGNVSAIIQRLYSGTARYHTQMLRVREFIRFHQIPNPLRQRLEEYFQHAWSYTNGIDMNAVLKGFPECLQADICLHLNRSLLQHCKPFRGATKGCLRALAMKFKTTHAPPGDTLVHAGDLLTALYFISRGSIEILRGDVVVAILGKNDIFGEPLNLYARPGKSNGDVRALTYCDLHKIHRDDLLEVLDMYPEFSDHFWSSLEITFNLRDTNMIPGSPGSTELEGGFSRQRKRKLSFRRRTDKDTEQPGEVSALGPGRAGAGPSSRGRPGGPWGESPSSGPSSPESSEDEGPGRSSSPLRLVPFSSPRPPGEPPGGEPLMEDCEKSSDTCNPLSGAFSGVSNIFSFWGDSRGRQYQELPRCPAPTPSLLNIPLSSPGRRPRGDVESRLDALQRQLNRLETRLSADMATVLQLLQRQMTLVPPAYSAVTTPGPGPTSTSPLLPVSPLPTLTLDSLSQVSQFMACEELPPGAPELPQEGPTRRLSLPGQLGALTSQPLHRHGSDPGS
T1 sequence (P08684 whole entry): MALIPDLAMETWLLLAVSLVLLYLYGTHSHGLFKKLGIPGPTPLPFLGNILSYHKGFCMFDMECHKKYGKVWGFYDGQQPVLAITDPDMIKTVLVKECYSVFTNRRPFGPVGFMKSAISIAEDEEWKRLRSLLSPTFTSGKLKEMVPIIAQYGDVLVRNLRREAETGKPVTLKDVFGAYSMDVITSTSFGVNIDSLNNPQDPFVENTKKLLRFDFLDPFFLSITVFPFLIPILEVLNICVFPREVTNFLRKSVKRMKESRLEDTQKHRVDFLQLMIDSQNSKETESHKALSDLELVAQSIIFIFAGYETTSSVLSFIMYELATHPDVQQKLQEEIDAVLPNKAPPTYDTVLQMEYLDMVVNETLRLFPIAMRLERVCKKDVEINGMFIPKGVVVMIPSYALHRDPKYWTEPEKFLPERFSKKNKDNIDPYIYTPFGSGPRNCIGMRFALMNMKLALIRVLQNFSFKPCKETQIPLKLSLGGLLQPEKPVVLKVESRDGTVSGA

## C[C@H]1SC(N)=N[C@](C)(c2cc(NC(=O)c3ccc(OCF)cn3)ccc2F)[C@H]1F [Compound I-51]
CYP3A4
  IC50: ≥ 10 µM
Solubility test; [2]
  solubility kinetic at 1 h: > 50 µM
Solubility test; [3]
  solubility kinetic at 16 h: >50 µM
CYP2C19
  IC50: ≥ 20 µM
[1]
  hERG_3 uM_%: 39.4%
Metabolic stability test
  remaining %: 76.5%
CYP1A2
  IC50: ≥ 20 µM

## Cc1cc(C#N)cnc1C(=O)Nc1ccc(F)c([C@@]2(C)N=C(N)S[C@H](C)[C@@H]2F)c1 [Compound I-52]
CYP3A4
  IC50: ≥ 20 µM
Solubility test; [2]
  solubility kinetic at 1 h: > 50 µM
Solubility test; [4]
  solubility kinetic at 1 h: 13.9 µM (≈ 5.78 µg/mL)
CYP2C19
  IC50: ≥ 20 µM
[1]
  hERG_3 uM_%: 55.7%
Metabolic stability test
  remaining %: 60.3%
CYP1A2
  IC50: ≥ 20 µM

## C[C@H]1SC(N)=N[C@](C)(c2cc(NC(=O)c3ncc(OCC(F)(F)F)cn3)ccc2F)[C@H]1F [Compound I-53]
CYP3A4
  IC50: ≥ 20 µM
Solubility test; [2]
  solubility kinetic at 1 h: > 50 µM
Solubility test; [3]
  solubility kinetic at 16 h: >50 µM
CYP2C19
  IC50: ≥ 20 µM
[1]
  hERG_3 uM_%: 47.9%
Metabolic stability test
  remaining %: 109%
CYP1A2
  IC50: ≥ 20 µM

## CC[C@H]1SC(N)=N[C@](C)(c2cc(NC(=O)c3cnc(OCF)cn3)ccc2F)[C@H]1F [Compound I-66]
CYP3A4
  IC50: ≥ 10 µM
Solubility test; [2]
  solubility kinetic at 1 h: > 50 µM
Solubility test; [3]
  solubility kinetic at 16 h: >50 µM
CYP2C19
  IC50: ≥ 20 µM
[1]
  hERG_3 uM_%: 27.1%
Metabolic stability test
  remaining %: 67%
CYP1A2
  IC50: ≥ 20 µM

## CC[C@H]1SC(N)=N[C@](C)(c2cc(NC(=O)c3ccc(F)cn3)ccc2F)[C@H]1F [Compound I-70]
CYP3A4
  IC50: ≥ 10 µM
Solubility test; [2]
  solubility kinetic at 1 h: > 50 µM
Solubility test; [3]
  solubility kinetic at 16 h: >50 µM
CYP2C19
  IC50: ≥ 20 µM
[1]
  hERG_3 uM_%: 58.6%
Metabolic stability test
  remaining %: 74.3%
CYP1A2
  IC50: ≥ 20 µM

## COc1cnc(C(=O)Nc2ccc(F)c([C@@]3(C)N=C(N)O[C@H]([C@@H](C)F)[C@@H]3F)c2)cn1 [Compound I-71]
CYP3A4
  IC50: ≥ 20 µM
Solubility test; [2]
  solubility kinetic at 1 h: > 50 µM
Solubility test; [5]
  solubility kinetic at 1 h: > 50 µM
CYP2C19
  IC50: ≥ 20 µM
[1]
  hERG_3 uM_%: 17%
Metabolic stability test
  remaining %: 63%
CYP1A2
  IC50: ≥ 20 µM

## C[C@]1(c2cc(NC(=O)c3ccc(C#N)cn3)ccc2F)N=C(N)O[C@H](C(F)(F)C2CC2)[C@@H]1F [Compound I-81]
CYP3A4
  IC50: ≥ 10 µM
Solubility test; [2]
  solubility kinetic at 1 h: > 50 µM
Solubility test; [4]
  solubility kinetic at 1 h: 19.3 µM (≈ 8.91 µg/mL)
CYP2C19
  IC50: ≥ 20 µM
[1]
  hERG_3 uM_%: 49.3%
Metabolic stability test
  remaining %: 101%
CYP1A2
  IC50: ≥ 20 µM

## COc1cnc(C(=O)Nc2ccc(F)c([C@@]3(C)N=C(N)O[C@H](C(F)F)[C@@H]3C)c2)cn1 [Compound I-86]
CYP3A4
  IC50: ≥ 20 µM
Solubility test; [2]
  solubility kinetic at 1 h: > 50 µM
Solubility test; [5]
  solubility kinetic at 1 h: > 50 µM
CYP2C19
  IC50: ≥ 20 µM
[1]
  hERG_3 uM_%: 23.8%
Metabolic stability test
  remaining %: 67.5%
CYP1A2
  IC50: ≥ 20 µM

## CO[C@H]1[C@@H](C)SC(N)=N[C@]1(C)c1cc(NC(=O)c2cnc(OCF)cn2)ccc1F [Compound I-87]
CYP3A4
  IC50: ≥ 20 µM
Solubility test; [2]
  solubility kinetic at 1 h: > 50 µM
Solubility test; [3]
  solubility kinetic at 16 h: >50 µM
CYP2C19
  IC50: ≥ 20 µM
[1]
  hERG_3 uM_%: 13.8%
Metabolic stability test
  remaining %: 81%
CYP1A2
  IC50: ≥ 20 µM

## CO[C@H]1[C@@H](C)SC(N)=N[C@]1(C)c1cc(NC(=O)c2ccc(C#N)cn2)ccc1F [Compound I-88]
CYP3A4
  IC50: ≥ 20 µM
Solubility test; [2]
  solubility kinetic at 1 h: > 50 µM
Solubility test; [3]
  solubility kinetic at 16 h: >50 µM
CYP2C19
  IC50: ≥ 20 µM
[1]
  hERG_3 uM_%: 45.6%
Metabolic stability test
  remaining %: 83.5%
CYP1A2
  IC50: ≥ 20 µM

## CO[C@H]1[C@@H](C)SC(N)=N[C@]1(C)c1cc(NC(=O)c2ccc(F)cn2)ccc1F [Compound I-89]
CYP3A4
  IC50: ≥ 20 µM
Solubility test; [2]
  solubility kinetic at 1 h: > 50 µM
Solubility test; [3]
  solubility kinetic at 16 h: >50 µM
CYP2C19
  IC50: ≥ 20 µM
[1]
  hERG_3 uM_%: 42.7%
Metabolic stability test
  remaining %: 86.7%
CYP1A2
  IC50: ≥ 20 µM

## COc1cnc(C(=O)Nc2ccc(F)c([C@@]3(C)N=C(N)S[C@H](C)[C@@H]3OC)c2)cn1 [Compound I-90]
CYP3A4
  IC50: ≥ 20 µM
Solubility test; [2]
  solubility kinetic at 1 h: > 50 µM
Solubility test; [3]
  solubility kinetic at 16 h: >50 µM
CYP2C19
  IC50: ≥ 20 µM
[1]
  hERG_3 uM_%: 11.4%
Metabolic stability test
  remaining %: 83.1%
CYP1A2
  IC50: ≥ 20 µM

## COC[C@H]1SC(N)=N[C@](C)(c2cc(NC(=O)c3cnc(OCF)cn3)ccc2F)[C@H]1F [Compound I-91]
CYP3A4
  IC50: ≥ 20 µM
Solubility test; [2]
  solubility kinetic at 1 h: > 50 µM
Solubility test; [3]
  solubility kinetic at 16 h: >50 µM
CYP2C19
  IC50: ≥ 20 µM
[1]
  hERG_3 uM_%: 11.3%
Metabolic stability test
  remaining %: 74.4%
CYP1A2
  IC50: ≥ 20 µM

## COc1ccc(C(=O)Nc2ccc(F)c([C@@]3(C)N=C(N)S[C@H](C)[C@@H]3F)c2)nn1 [Compound I-108]
CYP3A4
  IC50: ≥ 20 µM
Solubility test; [2]
  solubility kinetic at 1 h: > 50 µM
Solubility test; [3]
  solubility kinetic at 16 h: >50 µM
CYP2C19
  IC50: ≥ 20 µM
[1]
  hERG_3 uM_%: 39.5%
Metabolic stability test
  remaining %: 92.1%
CYP1A2
  IC50: ≥ 20 µM

## C[C@]1(c2cc(NC(=O)c3cnc(OCF)cn3)ccc2F)N=C(N)S[C@H](CO)[C@@H]1F [Compound I-109]
CYP3A4
  IC50: ≥ 20 µM
Solubility test; [2]
  solubility kinetic at 1 h: > 50 µM
Solubility test; [4]
  solubility kinetic at 1 h: 19 µM (≈ 8.39 µg/mL)
CYP2C19
  IC50: ≥ 20 µM
[1]
  hERG_3 uM_%: 11%
Metabolic stability test
  remaining %: 86.8%
CYP1A2
  IC50: ≥ 20 µM

## C[C@H]1SC(N)=N[C@](C)(c2cc(NC(=O)c3ccc(F)cn3)ccc2F)[C@H]1F [Compound I-116]
CYP3A4
  IC50: ≥ 20 µM
Solubility test; JP 1st fluid, 25 °C, pH 1.2, simulated gastric fluid, kinetic from dmso stock, read-out: JP1
  solubility kinetic at 16 h: > 50 µM
Solubility test; JP 2nd fluid A, 25 °C, pH 6.8, aqueous buffer, kinetic from dmso stock, read-out: JP2_μM
  solubility kinetic at 16 h: > 50 µM
CYP2C19
  IC50: ≥ 20 µM
[1]
  hERG_3 uM_%: 45.5%
Metabolic stability test
  remaining %: 106%
CYP1A2
  IC50: ≥ 20 µM
